From ChEMBL document CHEMBL1201862, “PubChem BioAssay data set” (2004)
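Results reflect a 48-hour exposure of cells in 96-well plates to compound at five concentrations. Here, GI50 denotes the concentration required for 50% inhibition of growth.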 Calls of active or inactive are those of the source. Cut-off read from the data, not from the text of the source: active = GI50 up to about 1.1 µM and inactive = higher.

Assays:
Experiment in all cases: DTP human tumour cell line panel, 48 h
UACC-62 = tested on: UACC-62
Malme-3M = tested on: Malme-3M
SK-MEL-2 = tested on: SK-MEL-2
HL-60 = tested on: HL-60
DU-145 = tested on: DU-145
ACHN = tested on: ACHN
SF-295 = tested on: SF-295
M14 = tested on: M14
LOX IMVI = tested on: LOX IMVI
IGROV-1 = tested on: IGROV-1
MDA-N = tested on: MDA-N
TK-10 = tested on: TK-10
SF-268 = tested on: SF-268
NCI-H522 = tested on: NCI-H522
MCF7 = tested on: MCF7
NCI/ADR-RES = tested on: NCI/ADR-RES
NCI-H226 = tested on: NCI-H226
SK-MEL-5 = tested on: SK-MEL-5
786-0 = tested on: 786-0
CCRF-CEM = tested on: CCRF-CEM

SMILES	GI50 (UACC-62)	GI50 (Malme-3M)	GI50 (SK-MEL-2)	GI50 (HL-60)	GI50 (DU-145)	GI50 (ACHN)	GI50 (SF-295)	GI50 (M14)	GI50 (LOX IMVI)	GI50 (IGROV-1)	GI50 (MDA-N)	GI50 (TK-10)	GI50 (SF-268)	GI50 (NCI-H522)	GI50 (MCF7)	GI50 (NCI/ADR-RES)	GI50 (NCI-H226)	GI50 (SK-MEL-5)	GI50 (786-0)	GI50 (CCRF-CEM)
N#CC[N+]1(Cc2ccccn2)CCCC1.O=S(=O)([O-])c1ccccc1	> 100 µM (inactive)	> 100 µM (inactive)	> 100 µM (inactive)	70.6 µM (inactive)	> 100 µM (inactive)	> 100 µM (inactive)	> 100 µM (inactive)	> 100 µM (inactive)	> 100 µM (inactive)	> 100 µM (inactive)	> 100 µM (inactive)	> 100 µM (inactive)	> 100 µM (inactive)	> 100 µM (inactive)	> 100 µM (inactive)	> 100 µM (inactive)	> 100 µM (inactive)	> 100 µM (inactive)	> 100 µM (inactive)	
O=C(c1no[n+]([O-])c1C(=O)c1csc2ccccc12)c1csc2ccccc12	10.9 µM (inactive)	3.19 µM (inactive)	6.68 µM (inactive)	0.0246 µM (active)	17.9 µM (inactive)	4.54 µM (inactive)	14.6 µM (inactive)	9.04 µM (inactive)	1.25 µM (inactive)	1.4 µM (inactive)	8.69 µM (inactive)	1.99 µM (inactive)	6.27 µM (inactive)	0.652 µM (active)	4.41 µM (inactive)	15.6 µM (inactive)	12.9 µM (inactive)	12.8 µM (inactive)	0.27 µM (active)	0.0834 µM (active)
COC(=O)CCCCC/C(=C\C(=O)C(Cl)(Cl)Cl)OC	36 µM (inactive)	21.1 µM (inactive)	22.2 µM (inactive)	22.3 µM (inactive)	25.5 µM (inactive)	39.7 µM (inactive)	43.3 µM (inactive)	31.1 µM (inactive)	20.9 µM (inactive)	12.7 µM (inactive)	24 µM (inactive)	29.4 µM (inactive)	24.4 µM (inactive)	16.6 µM (inactive)	23.3 µM (inactive)	30.5 µM (inactive)		38.8 µM (inactive)	24.9 µM (inactive)	15.4 µM (inactive)
O=c1c2cc(S(=O)(=O)Nc3ccccc3Cl)ccc2ncn1NS(=O)(=O)c1ccc(Br)cc1	> 37.5 µM (inactive)	> 37.5 µM (inactive)	> 37.5 µM (inactive)	> 37.5 µM (inactive)	> 37.5 µM (inactive)	> 37.5 µM (inactive)	> 37.5 µM (inactive)	> 37.5 µM (inactive)	> 37.5 µM (inactive)	> 37.5 µM (inactive)	> 37.5 µM (inactive)	> 37.5 µM (inactive)	> 37.5 µM (inactive)	> 37.5 µM (inactive)	> 37.5 µM (inactive)	> 37.5 µM (inactive)	> 37.5 µM (inactive)		> 37.5 µM (inactive)	> 37.5 µM (inactive)
CCCCCCCCCCCCNC(C)=O	15.6 µM (inactive)	17.7 µM (inactive)	14.8 µM (inactive)		30.9 µM (inactive)	23.2 µM (inactive)	17.7 µM (inactive)	17 µM (inactive)	6.85 µM (inactive)		16.7 µM (inactive)	13.7 µM (inactive)	14.3 µM (inactive)	14 µM (inactive)	17.1 µM (inactive)	17.3 µM (inactive)	18.7 µM (inactive)	16.8 µM (inactive)	16.8 µM (inactive)	14.4 µM (inactive)
C1=N/CCNCCNCC/N=C/c2ccccc2OCc2cccc(n2)COc2ccccc2/1	79.1 µM (inactive)	61.8 µM (inactive)	> 100 µM (inactive)	28 µM (inactive)	56.9 µM (inactive)	28.6 µM (inactive)	26.4 µM (inactive)	28.7 µM (inactive)		52.6 µM (inactive)	15.2 µM (inactive)		47.2 µM (inactive)	37.8 µM (inactive)	21.2 µM (inactive)	23.1 µM (inactive)	66.8 µM (inactive)	39.1 µM (inactive)	64.6 µM (inactive)	16.2 µM (inactive)
C=C(C)C1CC/C(C)=C/CCC2(C)OC2CC/C(CO)=C\C1O (centres undefined)	80 µM (inactive)	52.1 µM (inactive)	> 100 µM (inactive)	59.2 µM (inactive)	> 100 µM (inactive)	> 100 µM (inactive)	40.9 µM (inactive)	49.3 µM (inactive)	> 100 µM (inactive)	68.1 µM (inactive)	> 100 µM (inactive)	> 100 µM (inactive)	66.7 µM (inactive)		91.4 µM (inactive)	> 100 µM (inactive)	> 100 µM (inactive)		> 100 µM (inactive)	19.1 µM (inactive)
CC(C)(CO)CNc1nc(N)nc(Cl)c1C=O	12.5 µM (inactive)	39.7 µM (inactive)	16.8 µM (inactive)	3.9 µM (inactive)	94 µM (inactive)	48.8 µM (inactive)	42.4 µM (inactive)		16.4 µM (inactive)	20.1 µM (inactive)	25.5 µM (inactive)	46.9 µM (inactive)	14 µM (inactive)	7.67 µM (inactive)	50.4 µM (inactive)	42.2 µM (inactive)	50.8 µM (inactive)	30.7 µM (inactive)	79.3 µM (inactive)	20.6 µM (inactive)
[O-]c1c[n+](CCCC[n+]2cc([O-])on2)no1	> 100 µM (inactive)	> 100 µM (inactive)	> 100 µM (inactive)	> 100 µM (inactive)	> 100 µM (inactive)	> 100 µM (inactive)	> 100 µM (inactive)	> 100 µM (inactive)	> 100 µM (inactive)	> 100 µM (inactive)	> 100 µM (inactive)	> 100 µM (inactive)	> 100 µM (inactive)	> 100 µM (inactive)	> 100 µM (inactive)	> 100 µM (inactive)		> 100 µM (inactive)	> 100 µM (inactive)	> 100 µM (inactive)
O=C(O)c1ccc(OCc2nc3cc(C(F)(F)F)ccc3nc2-c2ccccc2)cc1	37.6 µM (inactive)		37.9 µM (inactive)	40 µM (inactive)	60.1 µM (inactive)	30.9 µM (inactive)	39.1 µM (inactive)	80.4 µM (inactive)	40 µM (inactive)	56 µM (inactive)	46.1 µM (inactive)	71 µM (inactive)	41.8 µM (inactive)	74.6 µM (inactive)	45 µM (inactive)	44.6 µM (inactive)	91.4 µM (inactive)	32.1 µM (inactive)	98.4 µM (inactive)	42.8 µM (inactive)
C=CCSC1=N/C(=C\c2ccc(C)cc2)C(=O)N1CC=C	32.3 µM (inactive)		25.8 µM (inactive)	12.2 µM (inactive)	20.7 µM (inactive)	36.1 µM (inactive)	43.5 µM (inactive)	29 µM (inactive)	26.5 µM (inactive)	44.2 µM (inactive)	18.6 µM (inactive)	44.3 µM (inactive)	36.6 µM (inactive)	26.7 µM (inactive)	20.9 µM (inactive)	40.5 µM (inactive)		14.3 µM (inactive)	18.3 µM (inactive)	
Nc1ccc2nc3ccc(=O)cc-3n(-c3ccccc3)c2c1	> 100 µM (inactive)	> 100 µM (inactive)	> 100 µM (inactive)	59 µM (inactive)	> 100 µM (inactive)	> 100 µM (inactive)	> 100 µM (inactive)	> 100 µM (inactive)		45.5 µM (inactive)	> 100 µM (inactive)		58.2 µM (inactive)	38.1 µM (inactive)	93.3 µM (inactive)	> 100 µM (inactive)	67.9 µM (inactive)	> 100 µM (inactive)	35.8 µM (inactive)	62.8 µM (inactive)
Cc1ccc(S(=O)(=O)Nn2c(C)cc3ccc(S(=O)(=O)Nc4ccccc4[N+](=O)[O-])cc3c2=O)cc1	38.9 µM (inactive)	> 100 µM (inactive)	39.4 µM (inactive)	> 100 µM (inactive)	> 100 µM (inactive)	> 100 µM (inactive)	17.6 µM (inactive)	13.6 µM (inactive)	> 100 µM (inactive)	43 µM (inactive)	29.6 µM (inactive)	> 100 µM (inactive)	> 100 µM (inactive)	> 100 µM (inactive)	99.3 µM (inactive)	> 100 µM (inactive)	40.1 µM (inactive)		> 100 µM (inactive)	> 100 µM (inactive)
COC(=O)C12OC3CO[Si](C(C)C)(C(C)C)O[Si](C(C)C)(C(C)C)OC3C1Oc1nc(=O)ccn12 (centres undefined)	14.3 µM (inactive)	14.8 µM (inactive)	17.1 µM (inactive)	23.4 µM (inactive)	18.5 µM (inactive)	17.9 µM (inactive)	16 µM (inactive)	17.8 µM (inactive)	17.4 µM (inactive)	11.6 µM (inactive)	18 µM (inactive)	17.1 µM (inactive)	12 µM (inactive)		16 µM (inactive)	15.6 µM (inactive)	15.8 µM (inactive)	16.2 µM (inactive)	17.7 µM (inactive)	17.3 µM (inactive)
Oc1ccc(-c2nc3ccccc3s2)cc1	32.4 µM (inactive)	47.3 µM (inactive)	20.4 µM (inactive)	30.3 µM (inactive)	33.1 µM (inactive)	45.8 µM (inactive)	37.5 µM (inactive)	44.2 µM (inactive)	21.4 µM (inactive)	25.7 µM (inactive)	32.9 µM (inactive)		31.5 µM (inactive)	15.5 µM (inactive)	33.6 µM (inactive)	31.8 µM (inactive)	43.3 µM (inactive)		27.1 µM (inactive)	26.2 µM (inactive)
